“Also recorded” adds a separate entry of the source. Read-outs that look alike come from different tables or passages of the source.
Legend:
[1] = test system: subjects with moderate to severe osteoarthritis of the knee; conditions: for Procedure-associated pain (post-procedural pain and injection site pain), patients reporting: RTX patients; for Procedure-associated pain reported as mild / Procedure-associated pain reported as moderate: RTX treated patients
[2] = test system: pain due to moderate to severe osteoarthritis of the knee; assay: Phase 1b double-blind study of intra-articular resiniferatoxin versus placebo: efficacy (WOMAC and NPRS pain scores); type: in vivo, human; conditions: for Patient reported WOMAC A1 and NPRS pain scores: all dose levels
Description: The study, described as “Phase 1b double-blind study assesses safety and preliminary efficacy of intra-articular administration of resiniferatoxin versus placebo for the treatment of pain due to moderate to severe osteoarthritis of the knee,” was performed.
Subjects with moderate to severe osteoarthritis diagnosed based on ACR diagnostic criteria and X-ray imaging were enrolled in a phase 1b double-blind study to assess the safety, tolerability and preliminary efficacy of intra-articular administration of resiniferatoxin or placebo for the treatment of moderate to severe pain due to osteoarthritis of the knee. Patients met the following criteria: (1) baseline pain score in the index knee (WOMAC pain subscale question A1) of ≥5 but ≤9 during four weeks prior to enrollment; (2) mean NPRS score of ≥5 but ≤9 during 8 of 10 days prior to enrollment; and (3) pain lasted for at least 6 months prior to enrollment.
As of August 2019, the enrollment of all planned dose level cohorts was completed. 40 patients have enrolled in these dose-escalation cohorts, 30 receiving RTX and 10 receiving placebo (multicenter, randomized, double-blind, placebo controls). In each cohort, six patients received intraarticular RTX and two received a saline control (placebo arm). 69% are female and 31% are male. The median age is 62 (range 44-83), and the baseline NPRS A1 score was mean 6.5 (S.D. 1.5).
The patients were treated with a one-time intraarticular dose of resiniferatoxin (RTX) or saline placebo at escalating dose level cohorts of 5 μg, 12.5 μg, 20 μg and 30 μg in 5 or 10 mL in dose escalation cohorts. For each 8-patient cohort, the first patient was considered a sentinel patient and received open-label drug. Upon confirmation of safety in the sentinel patient, the remaining 7 patients in the cohort were enrolled in a blinded fashion, 2 patients receiving placebo and 5 patients receiving RTX. After confirmation of safety at each dose level, the next higher dose level was opened for enrollment. Patients were followed for safety and efficacy over a 12-week period. Patients had the option to provide additional follow-up to 52 weeks. Efficacy was assessed using the patient reported WOMAC pain scores and NPRS pain scores. As per protocol, the treatment assignment could be unblinded at week 12.

[3] = Pharmacokinetics of RTX after intra-articular injection in the Phase 1b study; type: in vivo, human; conditions: for Number of RTX subjects with quantifiable PK / Number of subjects with BQL of RTX: 6 subjects with PK measured; for Cmax / AUC(0-t): human, in vivo, other: intra-articular injection
[4] = 30 μg, Cohort 6, 30 μg/5 or 10 ml, subject with quantifiable PK

C=C(C)[C@]12C[C@@H](C)[C@@]34O[C@](Cc5ccccc5)(O[C@@H]1[C@@H]3C=C(COC(=O)Cc1ccc(O)c(OC)c1)C[C@]1(O)C(=O)C(C)=C[C@@H]41)O2 [RTX, resiniferatoxin]
DMC assessment ([1]; Cohort 1, 5 μg): No DLTs | Notable AE's ([1]; Cohort 1, 5 μg): None | DMC assessment ([1]; Cohort 2, 12.5 μg): No DLTs | Notable AE's ([1]; Cohort 2, 12.5 μg): None | DMC assessment ([1]; Cohort 3, 12.5 μg (in 10 ml)): No DLTs | Notable AE's ([1]; Cohort 3, 12.5 μg (in 10 ml)): None | DMC assessment ([1]; Cohort 4, 20 μg): No DLTs | Notable AE's ([1]; Cohort 4, 20 μg): None | DMC assessment ([1]; Cohort 5, 30 μg): No DLTs | Notable AE's ([1]; Cohort 5, 30 μg): None | TEAE Areflexia, Mild: frequency ([1]; RTX All Cohorts (N = 57)): (3.5%) | TEAE Areflexia, Mild: number of subjects ([1]; RTX All Cohorts (N = 57)): 2 | TEAE Areflexia, Moderate: frequency ([1]; RTX All Cohorts (N = 57)): (3.5%) | TEAE Areflexia, Moderate: number of subjects ([1]; RTX All Cohorts (N = 57)): 2 | TEAE Arthralgia, Mild: frequency ([1]; RTX All Cohorts (N = 57)): (7.0%) | TEAE Arthralgia, Mild: number of subjects ([1]; RTX All Cohorts (N = 57)): 4 | TEAE Arthralgia, Moderate: frequency ([1]; RTX All Cohorts (N = 57)): (1.8%) | TEAE Arthralgia, Moderate: number of subjects ([1]; RTX All Cohorts (N = 57)): 1 | TEAE EOG QTc prolonged, Mild: frequency ([1]; RTX All Cohorts (N = 57)): (5.3%) | TEAE EOG QTc prolonged, Mild: number of subjects ([1]; RTX All Cohorts (N = 57)): 3 | TEAE Headache, Mild: frequency ([1]; RTX All Cohorts (N = 57)): (5.3%) | TEAE Headache, Mild: number of subjects ([1]; RTX All Cohorts (N = 57)): 3 | TEAE Hypertension, Mild: frequency ([1]; RTX All Cohorts (N = 57)): (7.0%) | TEAE Hypertension, Mild: number of subjects ([1]; RTX All Cohorts (N = 57)): 4 | TEAE Hypertension, Moderate: frequency ([1]; RTX All Cohorts (N = 57)): (7.0%) | TEAE Hypertension, Moderate: number of subjects ([1]; RTX All Cohorts (N = 57)): 4 | TEAE Hypoesthesia, Mild: frequency ([1]; RTX All Cohorts (N = 57)): (8.8%) | TEAE Hypoesthesia, Mild: number of subjects ([1]; RTX All Cohorts (N = 57)): 5 | TEAE Nausea, Mild: frequency ([1]; RTX All Cohorts (N = 57)): (31.6%) | TEAE Nausea, Mild: number of subjects ([1]; RTX All Cohorts (N = 57)): 18 | TEAE Nausea, Moderate: frequency ([1]; RTX All Cohorts (N = 57)): (3.5%) | TEAE Nausea, Moderate: number of subjects ([1]; RTX All Cohorts (N = 57)): 2 | TEAE Procedural pain, Mild: frequency ([1]; RTX All Cohorts (N = 57)): (64.9%) | TEAE Procedural pain, Mild: number of subjects ([1]; RTX All Cohorts (N = 57)): 37 | TEAE Procedural pain, Moderate: frequency ([1]; RTX All Cohorts (N = 57)): (26.3%) | TEAE Procedural pain, Moderate: number of subjects ([1]; RTX All Cohorts (N = 57)): 15 | TEAE Vomiting, Mild: frequency ([1]; RTX All Cohorts (N = 57)): (14.0%) | TEAE Vomiting, Mild: number of subjects ([1]; RTX All Cohorts (N = 57)): 8 | TEAE Vomiting, Moderate: frequency ([1]; RTX All Cohorts (N = 57)): (3.5%) | TEAE Vomiting, Moderate: number of subjects ([1]; RTX All Cohorts (N = 57)): 2 | Dose-limiting toxicities ([1]; all cohorts): No dose-limiting toxicities | Maximum tolerated dose ([1]; all cohorts): not identified | Relationship between adverse events and dose ([1]; all cohorts): no apparent relationship | Procedure-associated pain (post-procedural pain and injection site pain), patients reporting ([1]; all cohorts): 91% | Procedure-associated pain reported as mild ([1]; all cohorts): 65% | Procedure-associated pain reported as moderate ([1]; all cohorts): 26% | Dose-limiting toxicities ([1]; dose escalation cohorts (N=40)): No dose-limiting toxicities | Maximum tolerated dose ([1]; dose escalation cohorts (N=40)): not identified | Relationship between adverse events and dose ([1]; dose escalation cohorts (N=40)): no apparent relationship | Procedure-associated pain (post-procedural pain and injection site pain), patients reporting ([1]; dose escalation cohorts (N=40)): 100% | Procedure-associated pain reported as mild ([1]; dose escalation cohorts (N=40)): 55% | Procedure-associated pain reported as moderate ([1]; dose escalation cohorts (N=40)): 45% | Adverse events of interest ([1]; initial results, any dose group): nor adverse events of interest noted | Dose limiting toxicities (DLTs) ([1]; initial results, any dose group, to date): No dose limiting toxicities | Pain at walking (10 point WOMAC pain scale), mean pain score lower versus control ([2]; 5 μg RTX, Day 84): 4.7 points | WOMAC A-C pain index, least squares mean difference versus placebo (MMRM) ([2]; 12.5 μg dose, 12 weeks, p=0.016, N=6): −14.20 | WOMAC A1 score, least squares mean difference versus placebo (MMRM) ([2]; 12.5 μg dose, 12 weeks, p=0.029, N=6): −2.70 | NPRS score, least squares mean difference versus placebo (MMRM) ([2]; 12.5 μg dose, 12 weeks, p=0.051, N=6): −2.29 | Weekly average NPRS pain score, mean change (standard deviation) from baseline to week 12 ([2]; Cohort 4, 12.5 μg/5 ml, FIG. 2): −5.30 (1.94) | Weekly average WOMAC question A1, mean change (standard deviation) from baseline to week 12 ([2]; Cohort 4, 12.5 μg/5 ml, FIG. 3): −5.67 (1.51) | Patient reported WOMAC A1 and NPRS pain scores ([2]; all cohorts incl. volume and dose expansion cohorts): reduction | Improvements in patients of all dose groups ([2]; all dose groups, ongoing trial): rapid and sustainable improvements | Patient reported WOMAC A1 and NPRS pain scores ([2]; dose escalation cohorts (N=40), available unblinded data): reduction | Sustained clinical benefits / pain reduction sustained over time ([2]; lowest dose (5 μg), determined at 84 days): sustained clinical benefits; also recorded: sustained over time | Onset of pain relief ([2]; lowest dose tested, single 5 μg RTX injection into the knee joint): day following injection; also recorded: the day following drug administration | Patients reporting positive clinical benefits in pain reduction ([2]; patients treated with the active drug, to date): a majority | Patients achieving >70% reduction in pain versus baseline, NPRS score ([2]; pooled RTX-treated patients): 41% | Patients achieving >70% reduction in pain versus baseline, WOMAC A1 score ([2]; pooled RTX-treated patients): 54% | Weekly average NPRS pain score, change from baseline to week 12, difference versus pooled placebo ([2]; week 12, range over dose level cohorts): −0.34 to −2.29 | WOMAC question A1 (pain on walking on flat surface), least squares mean difference in change from baseline relative to placebo ([2]; week 12, range over dose level cohorts, 9 placebo, 28 RTX): −0.38 to −2.70 points | Number of RTX subjects with quantifiable PK ([3]; Cohort 1, 5 μg/5 ml): 1 | Number of subjects with BQL of RTX ([3]; Cohort 1, 5 μg/5 ml): 5 | Number of RTX subjects with quantifiable PK ([3]; Cohort 4, 12.5 μg/5 ml): 0 | Number of subjects with BQL of RTX ([3]; Cohort 4, 12.5 μg/5 ml): 6 | Number of RTX subjects with quantifiable PK ([3]; Cohort 4a, 12.5 μg/10 ml): 1 | Number of subjects with BQL of RTX ([3]; Cohort 4a, 12.5 μg/10 ml): 5 | Number of RTX subjects with quantifiable PK ([3]; Cohort 5, 20 μg/5 ml): 2 | Number of subjects with BQL of RTX ([3]; Cohort 5, 20 μg/5 ml): 4 | Number of RTX subjects with quantifiable PK ([3]; Cohort 6, 30 μg/5 or 10 ml): 1 | Number of subjects with BQL of RTX ([3]; Cohort 6, 30 μg/5 or 10 ml): 5 | Detectability of RTX (pharmacokinetic data) ([3]; all PK cohorts, intra-articular injection): undetectable in most patients | Cmax ([3]; 5 μg, Cohort 1, 5 μg/5 ml, subject with quantifiable PK): 0.121 ng/mL | AUC(0-t) ([3]; 5 μg, Cohort 1, 5 μg/5 ml, subject with quantifiable PK, read-out: AUC (0-6 hr)): 0.509 ng·h/mL | Cmax ([3]; 12.5 μg, Cohort 4a, 12.5 μg/10 ml, subject with quantifiable PK): 0.103 ng/mL | AUC(0-t) ([3]; 12.5 μg, Cohort 4a, 12.5 μg/10 ml, subject with quantifiable PK, read-out: AUC (0-6 hr)): 0.146 ng·h/mL | Cmax ([3]; 20 μg, Cohort 5, 20 μg/5 ml, first subject with quantifiable PK): 0.071 ng/mL | AUC(0-t) [3, 4]: 0.0854 ng·h/mL | Cmax [3, 4]: 0.0878 ng/mL

From patent publication US12029725B2 (priority 2019, dated 2024)
